Source: US10213428B2, “(4-((3R,4R)-3-methoxytetrahydro-pyran-4-ylamino)piperidin-1-yl)(5-methyl-6-(((2R,6S)-6-(p-tolyl)tetrahydro-2H-pyran-2-yl)methylamino)pyrimidin-4-yl)methanone citrate” (Centrexion Therapeutics Corporation, priority 2015, dated 2019)

How the values were obtained:
[1] = Intravenous pharmacokinetics in rat; assay type: in vivo, Wistar(Han) rats; settings: IV dose 5 μmol/kg, mean values
Source text: (§1) The pharmacokinetics of the test compound following single intravenous (IV) or oral (PO) doses were examined in • female BALB/c mice (average weight: 25 g) • male Wistar(Han) rats (average weight: 260 g) • male and female Göttingen Minipigs (average weight: 24 kg) • male beagle dogs (average weight: 15 kg) All non-rodent species were fasted overnight prior to dosing, while mice and rats had food and water available ad libitum. The p.o. dose of the compound was usually administered as suspension in 0.5% Natrosol or as a 0.5% Natrosol/0.015% Tween 80 suspension. For i.v. dosing purposes, the doses were applied as a solution in 0.9% NaCL, or as a solution containing 9.1% HP-beta Cyclodextrin in water.
(§2) Blood was collected by venous sampling and soaking of the blood in EDTA coated tubes. Samples were collected for up to 48 h after administration of the test compound. Plasma was then separated by centrifugation (5 min by approximately 9000 g at 4° C.). For determination of the test compound, plasma was transferred into PCR plates. All samples were stored at approximately −20° C. until bioanalytics. The test compound concentrations in plasma were determined by HPLC MS/MS. The lower limit of quantification was between 0.5 nmol/L and 1 nmol/L.

[2] = system: plasma protein; assay: In vitro plasma protein binding (equilibrium dialysis), dog; assay type: in vitro ADME; settings: 1.0 μM, dialysis 2 hours at 37° C.
Description: (§3) Dianorm Teflon dialysis cells (micro 0.2) are used. Each cell consists of a donor (i.e., buffer chamber) and an acceptor chamber (i.e., plasma chamber), separated by an ultrathin semipermeable membrane with a 5 kDa molecular weight cutoff. Stock solutions for each test compound are prepared in DMSO at 1 mM and diluted to a final concentration of 1.0 μM. Aliquots of 200 μL dialysis buffer (100 mM potassium phosphate, pH 7.4) are dispensed into the buffer chamber. Aliquots of 200 μL test compound dialysis solution are dispensed into the plasma chambers. Incubation is carried out for 2 hours under rotation at 37° C. Then, the dialysate is transferred into reaction tubes. The tubes for the buffer fraction contain 0.2 mL acetonitril/water (80/20 volume/volume). Aliquots of 25 μL of the plasma dialysate are transferred into deep well plates and mixed with 25 μL acetonitril/water (80/20 volume/volume), 25 μL buffer, 25 μL calibration solution and 25 μL Internal Standard solution. Protein precipitation is done by adding 200 μL acetonitrile. Aliquots of 50 μL of the buffer dialysate are transferred into deep well plates and mixed with 25 μL blank plasma, 25 μL Internal Standard solution and 200 μL acetonitril. Percent bound is calculated with the formula: % bound=(plasma concentration−buffer concentration/plasma concentration)×100.

[3] = as above; assay type: in vitro ADME; settings: pH 7.4, dialysis 2 hours at 37° C., read-out: Fraction bound (converted)
Description: as §3

[4] = system: U937 cells; assay: In vitro phospholipidosis assay (Nile Red staining, flow cytometry); settings: 48 hours incubation
Description: Cell line: U937. Cell density: 0.5 Mio. cells/mL. Amount of medium: 3 mL/well.
3×0.5 mL suspensions of cells are prepared from each sample for flow cytometry measurement (non-fixed cells for viability determination, non-fixed cells and fixed cells for phospholipidosis analysis).
Immediately before measurement, 12.5 μL of the PI ready to use solution is added per sample (0.5 mL non-fixed cell suspension), which are kept on ice for another 15 min before measurement.
Cut-off gates for the fluorescence-dependent differentiation between life and dead cells are defined based on the analysis of cell culture medium plus vehicle exposed Control cells. Cells with a fluorescence lower than the cut-off are defined as viable. Absolute viability of a sample is the relation of viable cells to total cell number and expressed as percentage.
Immediately before measurement, 50 μL of the NR ready to use solution for live cell staining is added per sample (0.5 mL non-fixed cell suspension). Samples are kept on ice for another 5 min. […]
Both the Nile Red stained non-fixed cells as well as the Nile Red stained fixed cells are measured according the following procedure. […]
For each channel, absolute fluorescence intensity of a specific sample is correlated to the mean absolute fluorescence intensity of all cell culture medium plus vehicle exposed Control cells of the respective experiment. […]

[5] = Oral pharmacokinetics in rat; assay type: in vivo, Wistar(Han) rats; settings: oral dose 20 μmol/kg of compound I
Source text: as §1, §2

[6] = Intravenous pharmacokinetics in dog; assay type: in vivo, beagle dogs; settings: IV dose 5 μmol/kg, mean values
Source text: as §1, §2

[7] = Intravenous pharmacokinetics in minipig; assay type: in vivo, Göttingen Minipigs; settings: IV dose 5 μmol/kg, mean values
Source text: as §1, §2

[8] = system: hepatocytes; assay: In vitro metabolic stability in hepatocyte incubations, human; assay type: in vitro ADME; settings: Human hepatocytes, 1 μM
Description: (§4) Metabolic degradation of the test compound is assayed in a hepatocyte suspension. Hepatocytes are incubated in an appropriate buffer system. Following a (typically) 30 min preincubation in an incubator (37° C., 10% CO2) 5 μL of test compound solution (1 μM) are added into 395 μL hepatocyte suspension (cell density in the range 0.25-5 Mio cells/mL, typically 1 Mio cells/mL, final DMSO concentration 0.05%). The cells are incubated for six hours (incubator, orbital shaker) and samples (25 μL) are taken at 0, 0.5, 1, 2, 4 and 6 hours. Samples are transferred into acetonitrile and pelleted by centrifugation (5 min). The supernatant is transferred to a new 96-deepwell plate, evaporated under nitrogen and resuspended. Decline of parent compound is analyzed by HPLC-MS/MS. CLint is calculated as follows CL_INTRINSIC=Dose/AUC=(CO/CD)/(AUD+clast/k)×1000/60. […]

[9] = as above; assay type: in vitro ADME; settings: hepatocytes (suspension); Human; predicted from hepatocyte CL intrinsic, well stirred model; read-out: CL, in vivo
Description: as §4

[10] = X-ray powder diffraction: crystallinity and polymorphism; assay type: physicochemical
Source text: X-ray powder diagrams were generated using a STOE-STADI P-diffractometer in transmission mode fitted with a MYTHEN-detector and a Cu-anode as X-ray source with monochromatic CuKα1 radiation (λ=1.54056 Å, 40 kV, 40 mA).

[11] = system: hepatocytes; assay: In vitro metabolic stability in hepatocyte incubations, rat; assay type: in vitro ADME; settings: Rat hepatocytes, 1 μM
Description: as §4

[12] = as above; assay type: in vitro ADME; settings: hepatocytes (suspension); Rat; predicted from hepatocyte CL intrinsic, well stirred model; read-out: CL, in vivo
Description: as §4

[13] = male, Wistar(Han), plasma, 5 umol/kg
[14] = male, Wistar(Han), plasma, 20 umol/kg, mean values
[15] = male, beagle, plasma, 5 umol/kg
[16] = both sexes, Göttingen, plasma, 5 umol/kg

CO[C@H]1COCC[C@H]1NC1CCN(C(=O)c2ncnc(NC[C@H]3CCC[C@@H](c4ccc(C)cc4)O3)c2C)CC1 [compound I, (4-((3R,4R)-3-methoxytetrahydro-pyran-4-ylamino)piperidin-1-yl)(5-methyl-6-(((2R,6S)-6-(p-tolyl)tetrahydro-2H-pyran-2-yl)methylamino)pyrimidin-4-yl)methanone]
MRTdisp [1]: 1.49 h
AUC(0-inf) [1, 13]: 1.49 µM·h
clearance [1, 13]: 56.1 mL/min/kg
Vd ([1]; male, Wistar(Han), plasma, 5 umol/kg, read-out: Vss): 5.04 L/kg
Fraction unbound [2]: 29.6%
fraction unbound at 2 h, 1 μM [3]: 0.296
lowest phospholipidogenic concentration [4]: 200 µM
phospholipidogenic potential (in words) [4]: propensitiy to be phospholipidogenic
AUC(0-inf) [5, 14]: 2.27 µM·h
Cmax [5, 14]: 580 nM
Tmax [5, 14]: 1.5 h
MRTtot ([5]; mean values): 5.49 h
F ([5]; oral bioavailability): 38%
MRTdisp [6]: 6.40 h
AUC(0-inf) [6, 15]: 5.99 µM·h
clearance [6, 15]: 14 mL/min/kg
Vd ([6]; male, beagle, plasma, 5 umol/kg, read-out: Vss): 4.94 L/kg
MRTdisp [7]: 4.15 h
AUC(0-inf) [7, 16]: 4.31 µM·h
clearance [7, 16]: 20 mL/min/kg
Vd ([7]; both sexes, Göttingen, plasma, 5 umol/kg, read-out: Vss): 5.07 L/kg
CL intrinsic, in vitro [8]: 4.11 μL/min/10e6 cells
CLhep predicted at 1 μM [9]: 7.9 mL/min/kg
crystallinity [10]: amorphous material
CL intrinsic, in vitro [11]: 8.77 μL/min/10e6 cells
CLhep predicted at 1 μM [12]: 26 mL/min/kg
